Laboratory results: US5536645A, “Nutritive medium for the culture of microorganism” (priority 1993, dated 1996)
Read-outs that look alike come from different tables or passages of the source.

Key:
Type in all cases: cell-based
[1] = test system: S. marcescens; experiment: Equivalent MIC of antibiotics in VITEK cards, gram-negative bacteria (Table 3); conditions: for MIC: Serratia marcescens, 12 h, read-out: Equivalent MIC
Method: (§1) With the determination of the sensitivity to antibiotics in mind, a suspension of 0.5 MF (Mac Farland) in physiological water was prepared from bacterial colonies selected in Petri dishes, reading being carried out on an ATB 1550 densitometer marketed by BIOMERIEUX (ATB trade mark). The suspension obtained was respectively diluted to 1/100th in the medium of the invention and Mueller-Hinton medium. VITEK cards (VITEK trade mark) containing different antibiotics at 10 concentrations were filled in vacuo into a VITEK apparatus marketed by BIOMERIEUX-VITEK. The cards were incubated for 12 hours in a VITEK incubator/reader marketed by BIOMERIEUX-VITEK. The growth kinetics were visualized and interpreted and an equivalent MIC was determined (equivalent MIC: equivalent minimum inhibitory concentration, that is to say the smallest concentration for which no bacterial growth is detected by the apparatus).
(§2) IST refers to the medium of the invention and MH signifies Mueller-Hinton medium.
(§3) S, I and R respectively signify "sensitive", "intermediate" and "resistant" with reference to the critical concentrations defined by the NCCLS (National Committee for Clinical Laboratory Standards).

[2] = test system: K. pneumoniae; experiment: as above; conditions: for MIC: Klebsiella pneumoniae, 12 h
Method: as §1, §2, §3

[3] = test system: E. faecalis; experiment: Equivalent MIC of antibiotics in VITEK cards, gram-positive bacteria (Table 4); conditions: for MIC: Enterococcus faecalis, 12 h
Method: as §1, §2
(§4) *A range of concentration, of ratio 2, was tested for each antibiotic in
(§5) each of the abovementioned concentration margins.
as §3

[4] = test system: S. aureus; experiment: microbe, parasite or virus in culture; conditions: for MIC: Staphylococcus aureus, read-out: Equivalent MIC
Method: as §1, §2, §4, §5, §3

[5] = test system: S. epidermidis; experiment: microbe, parasite or virus in culture; conditions: for MIC: Staphylococcus epidermidis, 12 h, read-out: Equivalent MIC
Method: as §1, §2, §4, §5, §3

[6] = test system: P. aeruginosa; experiment: Equivalent MIC of antibiotics in VITEK cards, gram-negative bacteria (Table 3)
Method: as §1, §2, §3

`CC1COc2c(N3CCN(C)CC3)c(F)cc3c(=O)c(C(=O)O)cn1c23` (centres unmarked) [ofloxacin] was tested, and the “NCCLS Category” value ([1]; API 81.45.111, IST medium) was “I”, the “NCCLS Category” value ([1]; API 81.45.111, MH medium) was “S” and the “NCCLS Category” value ([1]; API 81.47.110, IST medium) was “R”. The “NCCLS Category” value ([1]; API 81.47.110, MH medium) was “R”, the MIC ([1]; API 81.45.111, IST medium) was 4 µg/mL and the MIC ([1]; API 81.45.111, MH medium) was 2 µg/mL. For the same molecule, the MIC ([1]; API 81.47.110, IST medium) was 16 µg/mL, the MIC ([1]; API 81.47.110, MH medium) was 8 µg/mL and the “NCCLS Category” value ([2]; API 88.03.111, IST medium) was “S”. The “NCCLS Category” value ([2]; API 88.03.111, MH medium) was “S”, the “NCCLS Category” value ([2]; API 88.08.056, IST medium) was “I” and the “NCCLS Category” value ([2]; API 88.08.056, MH medium) was “I”. The “NCCLS Category” value ([2]; CDC 2279, IST medium) was “S”, the “NCCLS Category” value ([2]; CDC 2279, MH medium) was “S” and the MIC ([2]; API 88.03.111, IST medium) was 1 µg/mL. For the same molecule, the MIC ([2]; API 88.03.111, MH medium) was 1 µg/mL, the MIC ([2]; API 88.08.056, IST medium) was 4 µg/mL and the MIC ([2]; API 88.08.056, MH medium) was 4 µg/mL. It also gave an MIC ([2]; CDC 2279, IST medium) of 0.25 µg/mL and an MIC ([2]; CDC 2279, MH medium) of 0.25 µg/mL.
For `CN[C@H](CC(C)C)C(=O)N[C@H]1C(=O)N[C@@H](CC(N)=O)C(=O)N[C@H]2C(=O)N[C@H]3C(=O)N[C@H](C(=O)N[C@H](C(=O)O)c4cc(O)cc(O)c4-c4cc3ccc4O)[C@H](O)c3ccc(c(Cl)c3)Oc3cc2cc(c3O[C@@H]2O[C@H](CO)[C@@H](O)[C@H](O)[C@H]2O[C@H]2C[C@](C)(N)[C@H](O)[C@H](C)O2)Oc2ccc(cc2Cl)[C@H]1O` [vancomycin], the “NCCLS Category” value ([3]; CDC 2017, IST medium) was “I”, the “NCCLS Category” value ([3]; CDC 2017, MH medium) was “I” and the “NCCLS Category” value ([3]; CDC 2225, IST medium) was “S”. The “NCCLS Category” value ([3]; CDC 2225, MH medium) was “S”, the “NCCLS Category” value ([3]; CDC 2230, IST medium) was “S” and the “NCCLS Category” value ([3]; CDC 2230, MH medium) was “S”. The MIC ([3]; CDC 2017, IST medium) was 8 µg/mL, the MIC ([3]; CDC 2017, MH medium) was 16 µg/mL and the MIC ([3]; CDC 2225, IST medium) was 4 µg/mL. The MIC ([3]; CDC 2225, MH medium) was 4 µg/mL, the MIC ([3]; CDC 2230, IST medium) was 1 µg/mL and the MIC ([3]; CDC 2230, MH medium) was 1 to 2 µg/mL. The “NCCLS Category” value ([4]; ATCC 29213, IST medium) was “S”, the “NCCLS Category” value ([4]; ATCC 29213, MH medium) was “S” and the “NCCLS Category” value ([4]; CDC 2194, IST medium) was “S”. For the same molecule, the “NCCLS Category” value ([4]; CDC 2194, MH medium) was “S”, the “NCCLS Category” value ([4]; CDC 2215, IST medium) was “S” and the “NCCLS Category” value ([4]; CDC 2215, MH medium) was “S”. The MIC ([4]; 12 h, CDC 2194, IST medium) was 2 µg/mL, the MIC ([4]; 12 h, CDC 2194, MH medium) was 1 µg/mL and the MIC ([4]; 12 h, CDC 2215, IST medium) was 2 µg/mL. For the same molecule, the MIC ([4]; 12 h, CDC 2215, MH medium) was 1 µg/mL, the MIC ([4]; ATCC29213, 12 h, ATCC 29213, IST medium) was 2 µg/mL and the MIC ([4]; ATCC29213, 12 h, ATCC 29213, MH medium) was 2 µg/mL. For the same molecule, the “NCCLS Category” value ([5]; CDC 2024, IST medium) was “S”, the “NCCLS Category” value ([5]; CDC 2024, MH medium) was “S” and the “NCCLS Category” value ([5]; CDC 2105, IST medium) was “S”. For the same molecule, the “NCCLS Category” value ([5]; CDC 2105, MH medium) was “S”, the “NCCLS Category” value ([5]; CDC 2234, IST medium) was “S” and the “NCCLS Category” value ([5]; CDC 2234, MH medium) was “S”. It also gave an MIC ([5]; CDC 2024, IST medium) of 4 µg/mL, an MIC ([5]; CDC 2024, MH medium) of 4 µg/mL and an MIC ([5]; CDC 2105, IST medium) of 4 µg/mL. The MIC ([5]; CDC 2105, MH medium) was 2 µg/mL, the MIC ([5]; CDC 2234, IST medium) was 2 µg/mL and the MIC ([5]; CDC 2234, MH medium) was 2 µg/mL.
For gentamicin, the “Equivalent MIC” value ([6]; CDC 2009, IST medium) was 16 to 32 µg/mL, the “NCCLS Category” value ([6]; CDC 2009, IST medium) was “R” and the “Equivalent MIC” value ([6]; CDC 2009, MH medium) was 32 µg/mL. For the same molecule, the “NCCLS Category” value ([6]; CDC 2009, MH medium) was “R”, the “Equivalent MIC” value ([6]; CDC 2239, IST medium) was 2 µg/mL and the “NCCLS Category” value ([6]; CDC 2239, IST medium) was “S”. The “Equivalent MIC” value ([6]; CDC 2239, MH medium) was 2 µg/mL, the “NCCLS Category” value ([6]; CDC 2239, MH medium) was “S” and the “Equivalent MIC” value ([6]; CDC 2257, IST medium) was 0.5 to 1 µg/mL. The “NCCLS Category” value ([6]; CDC 2257, IST medium) was “S”, the “Equivalent MIC” value ([6]; CDC 2257, MH medium) was 0.5 µg/mL and the “NCCLS Category” value ([6]; CDC 2257, MH medium) was “S”. The “Equivalent MIC” value ([2]; CDC 2177, IST medium) was 0.5 µg/mL, the “NCCLS Category” value ([2]; CDC 2177, IST medium) was “S” and the “Equivalent MIC” value ([2]; CDC 2177, MH medium) was 0.25 µg/mL. For the same molecule, the “NCCLS Category” value ([2]; CDC 2177, MH medium) was “S”, the “Equivalent MIC” value ([2]; CDC 2249, IST medium) was 8 µg/mL and the “NCCLS Category” value ([2]; CDC 2249, IST medium) was “I”. The “Equivalent MIC” value ([2]; CDC 2249, MH medium) was 8 µg/mL, the “NCCLS Category” value ([2]; CDC 2249, MH medium) was “I” and the “Equivalent MIC” value ([2]; CDC 2279, IST medium) was 4 µg/mL. For the same molecule, the “NCCLS Category” value ([2]; CDC 2279, IST medium) was “S”, the “Equivalent MIC” value ([2]; CDC 2279, MH medium) was 4 µg/mL and the “NCCLS Category” value ([2]; CDC 2279, MH medium) was “S”.
